From US20160037772A1, “INCREASING ABIOTIC STRESS TOLERANCE IN PLANTS” (priority 2014, published 2016)

How the values were obtained:
[1] = test system: apple trees; assay: Field trial in apple trees under heat, light and water stress (sunburn, fruit size, yield); type: in vivo; conditions: apples
Experimental: Field trials were conducted in commercial fields and orchards in Chile during the 2011-12 and 2012-13 growing seasons. The results were evaluated by measuring specific fruit parameters affected by abiotic stress including fruit diameter, fruit number, and amount of damage from heat or sunburn. The plants evaluated were apples and tomatoes. The plants in the trials received a conventional application of pesticides, under normal application conditions. The heat and light stress were considered important from the beginning of fruit development. High temperatures ranged between 30-35° C. ambient temperature measured by conventional methods in the shade from December to harvest.
Foliage and fruit were evaluated before and after treatments at regular intervals for signs of phytotoxicity. […] Furthermore, no signs of uncontrolled disease incidence was detected.
SUNCROPS, SUNCROPS PLUS, SCREEN DUO, and ECLIPSE are commercial treatments which are used in the management of abiotic stress. Kaolins and calcium carbonates reduce stress by reflecting the ultraviolet, visible and infrared rays, reducing the impact of excessive heat and light in photosynthesis and other essential plant cellular processes. The dicarboxylic acids, such as the azalaic acid in SUNCROPS PLUS, physiologically act by interacting on lipo-oxygenation processes and production of reactive oxygen species. (Greenberg et al. “The lipid whisker model of the structure of oxidized cell membranes.” J. Biol. Chem. 283, 2385-96, 2008)
The apple trees received six applications of each formulation at the dosages indicated in the “Dosage” column of Table 1. Tomato plants received biweekly treatments from fruit formation to fruit harvest (a total of 6 applications).
The different stages of fruit development correspond to (1) cell division (2) pit hardening (stone fruits only) (3) cell expansion and (4) fruit ripening. The start of the tests was done during the cell division phase. This phase corresponds to the period with increased susceptibility to damage from high temperatures, and can be correlated with increase in fruits having reduced size and decrease in the number of fruits per plant as a consequence of the abiotic stress due to high temperatures.
Early season heat, light and/or water stress can prevent cell division that occurs during phase (1) of the development of apple fruits.
Testing with apples was conducted in Rancagua, Sixth Region; Chile. The tree fruit load was standardized at a value of about 220 fruits per tree; ±3%, thus eliminating the variability generated by different loads of fruit on the trees. To assess damage from sunburn related to heat and water stress, 100% of the apples were harvested from the tree in each test unit and were classified according to the following scheme shown in Table 2.
Table 2. Classification scheme based on visual evaluation of the fruit • 0 No visible presence of sunburn • 1 Presence of slight yellowing of the skin (<7% of the surface of the fruit); exportable commercial fruit. • 2 Presence of strong yellowing of the skin (>7% of the surface of the fruit); exportable commercial fruit. • 3 Presence of moderate sunburn skin, no commercial fruit, suitable only for juice or related industry. • 4 Presence of significant sunburn skin, no harvestable fruit unmarketable.
The variables measured were: fruit diameter (mm), percentage of sunburn (number of fruits belonging to grades 1 or 2), size of the fruit (measured as weight in grams). The total fruit yield of the tree and the commercial yield (amount of commercial grade fruits, grades 1 or 2) was also measured.

[2] = test system: tomato plants; assay: Field trial in tomato plants under heat, light and water stress (sunburn, yield, soluble solids); type: in vivo; conditions: 6 applications
Experimental: The study was conducted on tomatoes in a commercial growing field in Botalcura, Talca, Chile. […]
For each two meters plot, plants were harvested during six test runs. The fruit were first evaluated visually: fruits with red color as adequate for industrial processing, fruits with green color as inadequate and inappropriate for industrial processing and fruits damaged by the sun as disposable. […]

For O=CCCCCCCCC(=O)O [ONA, 9-Oxononanoic acid], the Fruit diameter ([1]; Rancagua, Chile, six applications at Table 1 dosage, about 220 fruits per tree) was 40.63 mm, the “Effectiveness in protection of fruit compared with commercial treatments” value ([1]; cell division stage) was “more effective than commercial treatments” and the Yield commercial ([1]; commercial grade fruits (grades 1 or 2), six applications) was 49.7 kg/tree. For the same compound, the Size ([1]; fruit weight, six applications) was 146 g/apple, the Yield total ([1]; six applications) was 53.9 kg/tree and the “Percent fruit of grades 1 or 2” value ([1]; visual sunburn grading scheme of Table 2, six applications) was 88.25%. The Soluble solids [2] was 6.4 °Brix.
